Reference: US12545637B2, “Extrahepatic targeted cationic lipid compound with high efficiency and low toxicity and its composition” (BEIJING YOUCARE KECHUANG PHARMACEUTICAL TECHNOLOGY CO., LTD., priority 2023, dated 2026)

Experiments:
293T cells = assay: Cell survival rate assay (CCK-8); assay type: cell-based
Description: Cell recovery and passage: 293T cells were recovered, cultured in a culture dish, and passaged to the required number of cells.
Seeding plate: The cells in the culture dish were digested and counted. Cells were spread in a 96-well plate at 10,000 cells per well and in a 12-well plate at 150,000 cells per well. Cells were cultured overnight until the cells adhered to the wall.
An LNP formulation containing 1.5 μg of Fluc-mRNA (prepared according to example 4, the carrier components of the LNP formulation were cationic lipid, neutral lipid, structured lipid and polymer-conjugated lipid at a molar ratio of 49:10:39.5:1.5, wherein the cationic lipid was listed in Table 1) and the formulation of Lipofectamine 3000 were added to the cell culture medium of a 96-well plate, and further cultivated for 24 hours. 10 μL of CCK-8 solution was then added to each well, and the culture plate was incubated in an incubator for 1 hour. The absorbance at 450 nm was measured by a microplate reader.

[1] = Particle size and polydispersity index (PDI) of lipid nanoparticles by dynamic light scattering; assay type: physicochemical
Description: The particle size and polydispersity index (PDI) were determined by dynamic light scattering using Malvern laser particle size analyzer.
10 μL of the liposome solution was weighed, diluted to 1 mL with RNase-free deionized water, and added to the sample pool. Each sample was measured in triplicate. The measurement conditions were: […] scattering angle, and 25° C.

female BALB/C mice = assay: In vivo imaging in mice of Fluc-mRNA LNP formulations (mRNA expression and duration)
Description: The LNP formulation (prepared according to Example 4) containing […] Fluc-mRNA was injected intramuscularly into female BALB/C mice aged 4-6 weeks and weighed 17-19 g, and the mice were intraperitoneally injected with fluorescent imaging substrate at specific time points after administration (6h, 24 h, 48h and 7d), where the mice were allowed to free move for 5 minutes, and then the average radiation intensity (corresponding to fluorescence expression intensity) of the protein expression of the mRNA carried by the LNP in the mice was detected by the IVIS Spectrum small animal in vivo imaging system.

## CCCCCCCCC(CCCCCCCC)OC(=O)CCCCCCCN(CCO)CCN(CCO)CCCCCCCC(=O)OC(CCCCCCCC)CCCCCCCC [YK-403, di(heptadecan-9-yl) 8, 8′-(ethane-1,2-diyl-bis((2-hydroxyethyl)azanediyl))dioctanoate]
293T cells; LNP with 1.5 μg Fluc-mRNA, 24 hours, CCK-8
  Cell survival rate: 70.76%
293T cells; difference vs ALC-0315
  cell survival rate higher than ALC-0315: 23.55%
293T cells; difference vs HIMA (HHMA)
  cell survival rate higher than HIMA: 6.49%
293T cells; difference vs Lipofectamine 3000
  cell survival rate higher than Lipofectamine 3000: 49.10%
293T cells; difference vs SM-102
  cell survival rate higher than SM-102: 2.86%
293T cells; difference vs YK-404
  cell survival rate higher than YK-404: 28.64%
293T cells; difference vs YK-405
  cell survival rate higher than YK-405: 28.90%
293T cells; difference vs YK-406
  cell survival rate higher than YK-406: 45.80%
293T cells; difference vs YK-408
  cell survival rate higher than YK-408: 28.45%
293T cells; difference vs YK-409
  cell survival rate higher than YK-409: 24.65%
293T cells; difference vs YK-410
  cell survival rate higher than YK-410: 25.84%
293T cells; difference vs YK-411
  cell survival rate higher than YK-411: 54.43%
293T cells; difference vs YK-412
  cell survival rate higher than YK-412: 16.62%
293T cells; difference vs YK-413
  cell survival rate higher than YK-413: 23.56%
293T cells; difference vs YK-414
  cell survival rate higher than YK-414: 42.01%
293T cells; difference vs YK-415
  cell survival rate higher than YK-415: 9.60%
293T cells; difference vs YK-416
  cell survival rate higher than YK-416: 29.79%
293T cells; difference vs YK-417
  cell survival rate higher than YK-417: 49.42%
293T cells; difference vs YK-418
  cell survival rate higher than YK-418: 49.71%
293T cells; difference vs YK-419
  cell survival rate higher than YK-419: 31.84%
293T cells; difference vs YK-420
  cell survival rate higher than YK-420: 35.17%
293T cells; difference vs YK-421
  cell survival rate higher than YK-421: 35.05%
293T cells; difference vs YK-424
  cell survival rate higher than YK-424: 42.83%
293T cells; difference vs compound 21
  cell survival rate higher than compound 21: 2.92%
293T cells; difference vs compound 23
  cell survival rate higher than compound 23: 1.65%
293T cells; rounded summary statement vs YK-411
  cytotoxicity reduced compared with YK-411: 50%
[1]; LNP formulation of the cationic lipid, 25° C.
  PDI: 16.5%
[1]; LNP formulation of the cationic lipid/DSPC/cholesterol/DMG-PEG2000 49:10:39.5:1.5, 25° C.
  Particle size: 163 nm
Female BALB/C mice; 6 h
  average radiation intensity, times that of ALC-0315: 1.89
  average radiation intensity, times that of HHMA: 2.40
  average radiation intensity, times that of SM-102: 2.30
  average radiation intensity, times that of compound 21: 2.65
  average radiation intensity, times that of compound 23: 2.73
  expression amount in mice, times that of YK-415: 13.48
  expression amount in mice, times that of YK-417: 26.26
  mRNA expression in mice, times that of YK-411: 271.52
Female BALB/C mice; 24 h
  average radiation intensity, times that of ALC-0315: 4.51
  average radiation intensity, times that of HHMA: 7.13
  average radiation intensity, times that of SM-102: 6.93
  average radiation intensity, times that of compound 21: 7.70
  average radiation intensity, times that of compound 23: 8.47
  expression amount in mice, times that of YK-415: 13.26
  expression amount in mice, times that of YK-417: 42.79
  mRNA expression in mice, times that of YK-411: 422.95
Female BALB/C mice; 48 h
  average radiation intensity, times that of ALC-0315: 7.69
  average radiation intensity, times that of HHMA: 9.25
  average radiation intensity, times that of SM-102: 9.39
  average radiation intensity, times that of compound 21: 9.78
  average radiation intensity, times that of compound 23: 9.37
  expression amount in mice, times that of YK-415: 19.54
  expression amount in mice, times that of YK-417: 43.80
  mRNA expression in mice, times that of YK-411: 316.45
Female BALB/C mice; 7 d
  average radiation intensity, times that of ALC-0315: 1.41
  average radiation intensity, times that of HHMA: 1.65
  average radiation intensity, times that of SM-102: 1.47
  average radiation intensity, times that of compound 21: 1.55
  average radiation intensity, times that of compound 23: 1.61
  expression amount in mice, times that of YK-415: 2.44
  expression amount in mice, times that of YK-417: 4.32
  mRNA expression in mice, times that of YK-411: 20.54
Female BALB/C mice; Fluc-mRNA LNP intramuscular, 6 h after administration
  average radiation intensity, 6 h: 1588400
Female BALB/C mice; Fluc-mRNA LNP intramuscular, 24 h after administration
  average radiation intensity, 24 h: 855204
Female BALB/C mice; Fluc-mRNA LNP intramuscular, 48 h after administration
  average radiation intensity, 48 h: 308540
Female BALB/C mice; Fluc-mRNA LNP intramuscular, 7 d after administration
  average radiation intensity, 7 d: 9857
